Test results taken from patent publication US20260262643A1, “HERBICIDAL BENZOXAZINES” (FMC CORPORATION, priority 2022, published 2026).

Legend:
ryegrass, Italian [1] = assay: Test A preemergence; format: in vivo, Lolium multiflorum
Outline: (§1)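 Plants were grown in loam and sand and treated preemergence or postemergence (one- to two-leaf stage, 2–10 cm) with compound in solvent plus surfactant. Response was scored against untreated controls after 10 greenhouse days, where 0 means no effect and 100 complete control.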

blackgrass [2] = assay: Test A postemergence; format: in vivo, Alopecurus myosuroides; settings: postemergence, 10 days
Outline: as §1

ragweed [3] = assay: Test A preemergence; format: in vivo, Ambrosia artemisiifolia
Outline: as §1

foxtail, giant [4] = assay: Test A preemergence; format: in vivo, Setaria faberi
Outline: as §1

rice = assay: Test B flooded paddy test; format: in vivo, Oryza sativa; settings: 250 g ai/ha, Flood, 13 days, 0 to 100 scale (0 no effect, 100 complete control)
Outline: (§2)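 2-leaf stage; pots flooded 3 cm over soil; compound dosed into paddy water; depth kept constant. Greenhouse, 13 d. Visual rating vs controls, 0 (no effect)–100 (complete control). Dash = no result.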

corn [5] = assay: Test A preemergence; format: in vivo, Zea mays
Outline: as §1

ragweed [6] = assay: Test A postemergence; format: in vivo, Ambrosia artemisiifolia; settings: postemergence, 10 days
Outline: as §1

kochia [7] = assay: Test A postemergence; format: in vivo, Bassia scoparia; settings: postemergence, 10 days
Outline: as §1

ducksalad = assay: Test B flooded paddy test; format: in vivo, Heteranthera limosa; settings: 250 g ai/ha, Flood, 13 days, 0 to 100 scale (0 no effect, 100 complete control)
Outline: as §2

barnyardgrass = assay: Test B flooded paddy test; format: in vivo, Echinochloa crus-galli; settings: 250 g ai/ha, Flood, 13 days, 0 to 100 scale (0 no effect, 100 complete control)
Outline: as §2

horseweed = assay: Test A postemergence; format: in vivo, Erigeron canadensis; settings: postemergence, 10 days
Outline: as §1

pigweed, palmer [8] = assay: Test A preemergence; format: in vivo, Amaranthus palmeri
Outline: as §1

ryegrass, Italian [9] = assay: Test A postemergence; format: in vivo, Lolium multiflorum; settings: postemergence, 10 days
Outline: as §1

foxtail, giant [10] = assay: Test A postemergence; format: in vivo, Setaria faberi; settings: postemergence, 10 days
Outline: as §1

corn [11] = assay: Test A postemergence; format: in vivo, Zea mays; settings: postemergence, 10 days
Outline: as §1

kochia [12] = assay: Test A preemergence; format: in vivo, Bassia scoparia
Outline: as §1

sedge, umbrella = assay: Test B flooded paddy test; format: in vivo, Cyperus difformis; settings: 250 g ai/ha, Flood, 13 days, 0 to 100 scale (0 no effect, 100 complete control)
Outline: as §2

pigweed, palmer [13] = assay: Test A postemergence; format: in vivo, Amaranthus palmeri; settings: postemergence, 10 days
Outline: as §1

wheat [14] = assay: Test A postemergence; format: in vivo, Triticum aestivum; settings: postemergence, 10 days
Outline: as §1

galium = assay: Test A postemergence; format: in vivo, Galium aparine; settings: postemergence, 10 days
Outline: as §1

oat, wild [15] = assay: Test A postemergence; format: in vivo, Avena fatua; settings: postemergence, 10 days
Outline: as §1

soybean [16] = assay: Test A postemergence; format: in vivo, Glycine max; settings: postemergence, 10 days
Outline: as §1

blackgrass [17] = assay: Test A preemergence; format: in vivo, Alopecurus myosuroides
Outline: as §1

goosegrass [18] = assay: Test A postemergence; format: in vivo, Eleusine indica; settings: postemergence, 10 days
Outline: as §1

wheat [19] = assay: Test A preemergence; format: in vivo, Triticum aestivum
Outline: as §1

soybean [20] = assay: Test A preemergence; format: in vivo, Glycine max
Outline: as §1

oat, wild [21] = assay: Test A preemergence; format: in vivo, Avena fatua
Outline: as §1

goosegrass [22] = assay: Test A preemergence; format: in vivo, Eleusine indica
Outline: as §1

[23] = 125 g ai/ha, visual injury after 10 days, 0 to 100 scale, 0 is no effect, 100 is complete control
[24] = 500 g ai/ha, 0 to 100 scale (0 no effect, 100 complete control), 10 days
[25] = 125 g ai/ha, 0 to 100 scale, 0 no effect, 100 complete control
[26] = 500 g ai/ha, visual injury, 0 to 100 scale (0 no effect, 100 complete control)

In the case of `Cc1ccc(-n2cnc(C(C)(C)C)n2)cc1C(=O)N1C[C@H](C)Oc2c(C)cccc21` [Compound 100], the “Plant response rating, Ryegrass, Italian” value (ryegrass, Italian [1]; [23]) is reported as 90, the “Plant response rating, Ryegrass, Italian” value (ryegrass, Italian [1]; [24]) is reported as 100 and the “Blackgrass plant response rating” value (blackgrass [2]; [25]) is reported as 30. For the same compound, the “Plant response rating, Blackgrass” value (blackgrass [2]; [26]) was 90, the “Plant response rating, Ragweed” value (ragweed [3]; [23]) was 80 and the “Plant response rating, Ragweed” value (ragweed [3]; [24]) was 100. For the same compound, the “Plant response rating, Foxtail, Giant” value (foxtail, giant [4]; [23]) was 100, the “Plant response rating, Foxtail, Giant” value (foxtail, giant [4]; [24]) was 100 and the “Plant response rating, Rice” value (rice) was 0. The “Plant response rating, Corn” value (corn [5]; [23]) was 0, the “Plant response rating, Corn” value (corn [5]; [24]) was 40 and the “Ragweed plant response rating” value (ragweed [6]; [25]) was 60. For the same compound, the “Plant response rating, Ragweed” value (ragweed [6]; [26]) was 70, the “Kochia plant response rating” value (kochia [7]; [25]) was 80 and the “Plant response rating, Kochia” value (kochia [7]; [26]) was 90. The “Plant response rating, Ducksalad” value (ducksalad) was 40, the “Plant response rating, Barnyardgrass” value (barnyardgrass) was 0 and the “Horseweed plant response rating” value (horseweed; [25]) was 40. The “Plant response rating, Horseweed” value (horseweed; [26]) was 70, the “Plant response rating, Pigweed, Palmer” value (pigweed, palmer [8]; [23]) was 100 and the “Plant response rating, Pigweed, Palmer” value (pigweed, palmer [8]; [24]) was 100. The “Ryegrass, Italian plant response rating” value (ryegrass, Italian [9]; [25]) was 50, the “Plant response rating, Ryegrass, Italian” value (ryegrass, Italian [9]; [26]) was 80 and the “Foxtail, Giant plant response rating” value (foxtail, giant [10]; [25]) was 50. For the same compound, the “Plant response rating, Foxtail, Giant” value (foxtail, giant [10]; [26]) was 90, the “Corn plant response rating” value (corn [11]; [25]) was 70 and the “Plant response rating, Corn” value (corn [11]; [26]) was 70. For the same compound, the “Plant response rating, Kochia” value (kochia [12]; [23]) was 90, the “Plant response rating, Kochia” value (kochia [12]; [24]) was 100 and the “Plant response rating, Sedge, Umbrella” value (sedge, umbrella) was 55. For the same compound, the “Pigweed, Palmer plant response rating” value (pigweed, palmer [13]; [25]) was 70, the “Plant response rating, Pigweed, Palmer” value (pigweed, palmer [13]; [26]) was 100 and the “Wheat plant response rating” value (wheat [14]; [25]) was 30. The “Plant response rating, Wheat” value (wheat [14]; [26]) was 40, the “Galium plant response rating” value (galium; [25]) was 80 and the “Plant response rating, Galium” value (galium; [26]) was 100. For the same compound, the “Oat, Wild plant response rating” value (oat, wild [15]; [25]) was 30, the “Plant response rating, Oat, Wild” value (oat, wild [15]; [26]) was 70 and the “Soybean plant response rating” value (soybean [16]; [25]) was 100. For the same compound, the “Plant response rating, Soybean” value (soybean [16]; [26]) was 100, the “Plant response rating, Blackgrass” value (blackgrass [17]; [23]) was 60 and the “Plant response rating, Blackgrass” value (blackgrass [17]; [24]) was 70. The “Goosegrass plant response rating” value (goosegrass [18]; [25]) was 70, the “Plant response rating, Goosegrass” value (goosegrass [18]; [26]) was 100 and the “Plant response rating, Wheat” value (wheat [19]; [23]) was 50. The “Plant response rating, Wheat” value (wheat [19]; [24]) was 60, the “Plant response rating, Soybean” value (soybean [20]; [23]) was 80 and the “Plant response rating, Soybean” value (soybean [20]; [24]) was 100. For the same compound, the “Plant response rating, Oat, Wild” value (oat, wild [21]; [23]) was 40, the “Plant response rating, Oat, Wild” value (oat, wild [21]; [24]) was 90 and the “Plant response rating, Goosegrass” value (goosegrass [22]; [23]) was 100. For the same compound, the “Plant response rating, Goosegrass” value (goosegrass [22]; [24]) was 100.
